ChEMBL document CHEMBL1136091, “Borrelidin induces the transcription of amino acid biosynthetic enzymes via a GCN4-dependent pathway” (Bioorg Med Chem Lett, 2003)

What was measured:
[1] = target: Cyclin-dependent kinase 1 (Saccharomyces cerevisiae S288c, UniProt P00546); assay: Inhibition of cyclin-dependent kinase activity of Cdc28p/CDK2p in Saccharomyces cerevisiae
Saccharomyces cerevisiae [2] = assay: Global transcription profiling experiment to examine the changes in the mRNA levels in the wt laboratory strain treated with the concentration of borrelidin ([…]) that inhibitedcontinued growth of wt yeast; type: functional
Saccharomyces cerevisiae [3] = assay: Ability to inhibit cell proliferation of Saccharomyces cerevisiae strain BY4741; type: functional, organism-based

Sequence of Cyclin-dependent kinase 1 (P00546 whole entry): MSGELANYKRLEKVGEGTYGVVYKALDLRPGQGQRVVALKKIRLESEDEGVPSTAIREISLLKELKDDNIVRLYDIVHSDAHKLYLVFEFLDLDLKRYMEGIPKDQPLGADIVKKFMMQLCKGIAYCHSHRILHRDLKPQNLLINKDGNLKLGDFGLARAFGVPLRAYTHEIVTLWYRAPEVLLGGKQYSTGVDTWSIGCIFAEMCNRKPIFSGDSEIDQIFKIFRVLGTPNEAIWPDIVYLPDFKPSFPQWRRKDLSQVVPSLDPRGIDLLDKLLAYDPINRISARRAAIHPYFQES

C[C@@H]1C[C@H](C)C[C@H](C)[C@@H](O)CC(=O)O[C@H]([C@@H]2CCC[C@H]2C(=O)O)C/C=C/C=C(/C#N)[C@H](O)[C@@H](C)C1 [BORRELIDIN]
IC50 [1]: 24 µM
Inhibition (Saccharomyces cerevisiae [2]): 75%
IC50 (Saccharomyces cerevisiae [3]): 23 µM
